Results published in patent US12492202B2, “Macrocyclic PAD4 inhibitors useful as immunosuppressant” (BRISTOL-MYERS SQUIBB COMPANY, priority 2020, dated 2025).

The molecules below were run against human PAD4 (hPAD4) (Homo sapiens (Human), UniProt Q9UM07) (assay: RFMS Human PAD4 Functional Assay). Settings: rapid-fire mass spectrum (RFMS) assay; 5 nM hPAD4 enzyme, 250 μM BAEE, 30 min preincubation at 37° C.
Format: biochemical

Sequence of human PAD4 (hPAD4) (Q9UM07 whole entry): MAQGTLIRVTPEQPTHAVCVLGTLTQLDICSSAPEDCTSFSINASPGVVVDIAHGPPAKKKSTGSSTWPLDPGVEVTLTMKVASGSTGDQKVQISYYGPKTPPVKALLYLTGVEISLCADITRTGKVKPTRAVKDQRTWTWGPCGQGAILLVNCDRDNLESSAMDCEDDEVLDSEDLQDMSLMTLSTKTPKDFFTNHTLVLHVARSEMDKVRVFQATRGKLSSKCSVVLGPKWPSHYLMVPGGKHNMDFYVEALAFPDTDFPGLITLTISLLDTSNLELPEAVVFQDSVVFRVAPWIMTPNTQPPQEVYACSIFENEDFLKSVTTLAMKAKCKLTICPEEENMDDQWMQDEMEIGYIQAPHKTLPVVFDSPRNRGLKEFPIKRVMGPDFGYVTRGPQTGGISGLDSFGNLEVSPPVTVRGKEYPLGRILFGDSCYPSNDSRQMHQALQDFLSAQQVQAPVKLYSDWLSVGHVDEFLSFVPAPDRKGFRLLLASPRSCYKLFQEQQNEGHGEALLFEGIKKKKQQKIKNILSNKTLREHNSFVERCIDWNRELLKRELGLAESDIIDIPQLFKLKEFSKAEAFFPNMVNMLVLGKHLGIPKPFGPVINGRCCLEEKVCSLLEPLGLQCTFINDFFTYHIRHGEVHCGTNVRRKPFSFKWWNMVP

IC50 [nM] | Structure (SMILES)
78 | COc1cc(C(=O)N2C[C@H]3CC[C@@H]2[C@@H]3N)cc2nc3n(c12)CC1CC(=O)N(C1)c1ccccc1CCCCn1c-3cc2cccnc21 (single isomer, unassigned) [Example 38]
44.9 | COc1cc(C(=O)N2CC3CCC2[C@@H]3N)cc2nc3n(c12)Cc1cccc(c1)/C=C\CCCCn1c-3cc2cccnc21 (stereo in doubt) [Example 41, ((1R,4R,7R)-7-Amino-2-azabicyclo[2.2.1]heptan-2-yl)((Z)-27-methoxy-11H,21H-1,2(2,1)-dipyrrolo[2,3-b]pyridina-4(1,3)-benzenacyclodecaphan-5-en-25-yl)methanone]
1370 | COc1cc(C(=O)N2CC3CCC2[C@@H]3N)cc2nc3n(c12)Cc1cnn(c1)CCCCCCn1c-3cc2cccnc21 (stereo partly drawn) [Example 2, ((7R)-7-Amino-2-azabicyclo[2.2.1]heptan-2-yl)((Z)-2^7-methoxy-1^1H,2^1H,4^1H-1,2(2,1)-dipyrrolo[2,3-b]pyridina-4(4,1)-pyrazolacyclodecaphane-2^5-yl)methanone]
19 | COc1cc(C(=O)N2C[C@H](N)C[C@@H](F)C2)cc2nc3n(c12)Cc1cnn(c1)-c1ccccc1OCCCn1c-3cc2ccccc21 [Example 3, ((3R,5R)-3-Amino-5-fluoropiperidin-1-yl)((Z)-2^7-methoxy-1^1H,2^1H,4^1H-6-oxa-2(2,1)-benzo[d]imidazola-1(2,1)-indola-4(4,1)-pyrazola-5(1,2)-benzenacyclononaphane-2^5-yl)methanone]
137 | COc1cc(C(=O)N2CC3CCC2[C@@H]3N)cc2nc3n(c12)Cc1cnn(c1)CCCCCCCn1c-3cc2cccnc21 (stereo partly drawn) [Example 10, ((7R)-7-amino-2-azabicyclo[2.2.1]heptan-2-yl)((Z)-2^7-methoxy-1^1H,2^1H,4^1H-1,2(2,1)-dipyrrolo[2,3-b]pyridina-4(4,1)-pyrazolacycloundecaphane-2^5-yl)methanone]
11 | COc1cc(C(=O)N2CC3CCC2[C@@H]3N)cc2nc3n(c12)Cc1cnn(c1)-c1ccccc1OCCCn1c-3cc2ccccc21 (stereo partly drawn) [Example 14, ((7R)-7-amino-2-azabicyclo[2.2.1]heptan-2-yl)((Z)-2^7-methoxy-1^1H,2^1H,4^1H-6-oxa-2(2,1)-benzo[d]imidazola-1(2,1)-indola-4(4,1)-pyrazola-5(1,2)-benzenacyclononaphane-2^5-yl) methanone]
40 | COc1cc(C(=O)N2C[C@H](N)C[C@@H](F)C2)cc2nc3n(c12)Cc1cnn(c1)-c1ccccc1OCCCn1c-3cc2cccnc21 [Example 15, ((3R,5R)-3-amino-5-fluoropiperidin-1-yl)((Z)-2^7-methoxy-1^1H,2^1H,4^1H-6-oxa-1,2(2,1)-dipyrrolo[2,3-b]pyridina-4(4,1)-pyrazola-5(1,2)-benzenacyclononaphane-2^5-yl)methanone]
15 | COc1cc(C(=O)N2CC3CCC2[C@@H]3N)cc2nc3n(c12)Cc1cnn(c1)-c1ccccc1OCCCn1c-3cc2cccnc21 (stereo partly drawn) [Example 16, ((7R)-7-amino-2-azabicyclo[2.2.1]heptan-2-yl)((Z)-2^7-methoxy-1^1H,2^1H,4^1H-6-oxa-1,2(2,1)-dipyrrolo[2,3-b]pyridina-4(4,1)-pyrazola-5(1,2)-benzenacyclononaphane-2^5-yl)methanone]
11 | COc1cc(C(=O)N2CC3CCC2[C@@H]3N)cc2nc3n(c12)Cc1ccn(n1)-c1ccccc1OCCCn1c-3cc2cccnc21 (stereo partly drawn) [Example 17, ((7R)-7-amino-2-azabicyclo[2.2.1]heptan-2-yl)((E)-2^7-methoxy-1^1H,2^1H,4^1H-6-oxa-1,2(2,1)-dipyrrolo[2,3-b]pyridina-4(3,1)-pyrazola-5(1,2)-benzenacyclononaphane-2^5-yl) methanone]
9 | COc1cc(C(=O)N2C[C@H](N)C[C@@H](F)C2)cc2nc3n(c12)Cc1ccn(n1)-c1ccccc1OCCCn1c-3cc2cccnc21 [Example 18, ((3R,5R)-3-amino-5-fluoropiperidin-1-yl)((E)-2^7-methoxy-1^1H,2^1H,4^1H-6-oxa-1,2(2,1)-dipyrrolo[2,3-b]pyridina-4(3,1)-pyrazola-5(1,2)-benzenacyclononaphane-2^5-yl)methanone]

Further lines, the molecule ahead of its results:

Structure (SMILES) | IC50 [nM]
COc1cc(C(=O)N2C[C@H]3CC[C@@H]2[C@@H]3N)cc2nc3n(c12)Cc1cccc(c1)[C@H](O)[C@H](O)CCCCn1c-3cc2cccnc21 (relative stereo) [Example 47, ((1R,4R,7R)-7-amino-2-azabicyclo[2.2.1]heptan-2-yl)((5S,6R)-5,6-dihydroxy-27-methoxy-1^1H,2^1H-1,2(2,1)-dipyrrolo[2,3-b]pyridina-4(1,3)-benzenacyclodecaphane-25-yl)methanone] | 88
COc1cc(C(=O)N2C[C@H]3CC[C@@H]2[C@@H]3N)cc2nc3n(c12)Cc1cccc(c1)[C@H](O)[C@H](O)CCCCn1c-3cc2cccnc21 (relative stereo) [Example 48, ((1R,4R,7R)-7-amino-2-azabicyclo[2.2.1]heptan-2-yl)((5S,6R)-5,6-dihydroxy-27-methoxy-1^1H,2^1H-1,2(2,1)-dipyrrolo[2,3-b]pyridina-4(1,3)-benzenacyclodecaphane-25-yl)methanone] | 92
COc1cc(C(=O)N2C[C@H]3CC[C@@H]2[C@@H]3N)cc2nc3n(c12)CC1CC(=O)N(C1)c1ccccc1CCCCn1c-3cc2cccnc21 (single isomer, unassigned) [Example 37] | 19
COc1cc(C(=O)N2C[C@H]3CC[C@@H]2[C@@H]3N)cc2nc3n(c12)Cc1cccc(c1)[C@H](O)[C@H](O)CCCCn1c-3cc2cccnc21 (single isomer, unassigned) [Example 45] | 30.6
COc1cc(C(=O)N2C[C@H]3CC[C@@H]2[C@@H]3N)cc2nc3n(c12)Cc1cccc(c1)[C@H](O)[C@H](O)CCCCn1c-3cc2cccnc21 (single isomer, unassigned) [Example 46] | 44.8
COc1cc(C(=O)N2C[C@H](N)C[C@@H](F)C2)cc2nc3n(c12)Cc1cccc(c1)[C@H](O)[C@H](O)CCCCn1c-3cc2cccnc21 (single isomer, unassigned) [Example 49] | 292
COc1cc(C(=O)N2C[C@H](N)C[C@@H](F)C2)cc2nc3n(c12)Cc1cccc(c1)[C@H](O)[C@H](O)CCCCn1c-3cc2cccnc21 (single isomer, unassigned) [Example 50] | 837
COc1cc(C(=O)N2CC3CCC2[C@@H]3N)cc2nc3n(c12)Cc1cnn(c1)CCCCCn1c-3cc2ccccc21 (stereo partly drawn) [Example 1, ((7R)-7-Amino-2-azabicyclo[2.2.1]heptan-2-yl)((Z)-2^7-methoxy-1^1H,2^1H,4^1H-2(2,1)-benzo[d]imidazola-1(2,1)-indola-4(4,1)-pyrazolacyclononaphane-2^5-yl)methanone] | 255
COc1cc(C(=O)N2CC3CCC2[C@@H]3N)cc2nc3n(c12)Cc1cnn(c1)CCCCCCn1c-3cc2ccccc21 (stereo partly drawn) [Example 4, ((7R)-7-amino-2-azabicyclo[2.2.1]heptan-2-yl)((Z)-2^7-methoxy-1^1H,2^1H,4^1H-2(2,1)-benzo[d]imidazola-1(2,1)-indola-4(4,1)-pyrazolacyclodecaphane-2^5-yl)methanone] | 24
COc1cc(C(=O)N2C[C@H](N)C[C@@H](F)C2)cc2nc3n(c12)Cc1cnn(c1)CCCCCCCn1c-3cc2ccccc21 [Example 5, ((3R,5R)-3-amino-5-fluoropiperidin-1-yl)((Z)-2^7-methoxy-1^1H,2^1H,4^1H-2(2,1)-benzo[d]imidazola-1(2,1)-indola-4(4,1)-pyrazolacycloundecaphane-2^5-yl)methanone] | 37
COc1cc(C(=O)N2CC3CCC2[C@@H]3N)cc2nc3n(c12)Cc1cnn(c1)CCCCCCCn1c-3cc2ccccc21 (stereo partly drawn) [Example 6, ((7R)-7-amino-2-azabicyclo[2.2.1]heptan-2-yl)((Z)-2^7-methoxy-1^1H,2^1H,4^1H-2(2,1)-benzo[d]imidazola-1(2,1)-indola-4(4,1)-pyrazolacycloundecaphane-2^5-yl)methanone] | 31
COc1cc(C(=O)N2C[C@H](N)C[C@@H](F)C2)cc2nc3n(c12)Cc1cnn(c1)CCCCCCn1c-3cc2cccnc21 [Example 8, ((3R,5R)-3-amino-5-fluoropiperidin-1-yl)((Z)-2^7-methoxy-1^1H,2^1H,4^1H-1,2(2,1)-dipyrrolo[2,3-b]pyridina-4(4,1)-pyrazolacyclodecaphane-2^5-yl)methanone] | 277
COc1cc(C(=O)N2C[C@H](N)C[C@@H](F)C2)cc2nc3n(c12)Cc1cnn(c1)CCCCCCCn1c-3cc2cccnc21 [Example 9, ((3R,5R)-3-amino-5-fluoropiperidin-1-yl)((Z)-2^7-methoxy-1^1H,2^1H,4^1H-1,2(2,1)-dipyrrolo[2,3-b]pyridina-4(4,1)-pyrazolacycloundecaphane-2^5-yl)methanone] | 612
COc1cc(C(=O)N2CCC[C@@H](N)C2)cc2nc3n(c12)Cc1cnn(c1)CCCCCCn1c-3cc2cccnc21 [Example 11, ((R)-3-aminopiperidin-1-yl)((Z)-2^7-methoxy-1^1H,2^1H,4^1H-1,2(2,1)-dipyrrolo[2,3-b]pyridina-4(4,1)-pyrazolacyclodecaphane-2^5-yl)methanone] | 18800
COc1cc(C(=O)N2CC3CCC2[C@@H]3N)cc2nc3n(c12)Cc1cnn(c1)CCCCCCn1c-3cc2ccccc21 (stereo partly drawn) [Example 12, ((7R)-7-amino-2-azabicyclo[2.2.1]heptan-2-yl)((E)-2^7-methoxy-1^1H,2^1H,4^1H-2(2,1)-benzo[d]imidazola-1(2,1)-indola-4(3,1)-pyrazolacyclodecaphane-2^5-yl)methanone] | 47
COc1cc(C(=O)N2C[C@H](N)C[C@@H](F)C2)cc2nc3n(c12)Cc1cnn(c1)CCCCCCn1c-3cc2ccccc21 [Example 13, ((3R,5R)-3-amino-5-fluoropiperidin-1-yl)((E)-2^7-methoxy-1^1H,2^1H,4^1H-2(2,1)-benzo[d]imidazola-1(2,1)-indola-4(3,1)-pyrazolacyclodecaphane-2^5-yl) methanone] | 66
